Among the data in US20070173486A1, “Azetidinecarboxamide derivatives and their use in the treatment of cb1 receptor mediated disordrs” (VERNALIS RESEARCH LIMITED, priority 2003, published 2007) are Ki values, retold here.

Each structure is given as a SMILES string.

T1 sequence (P21554 whole entry): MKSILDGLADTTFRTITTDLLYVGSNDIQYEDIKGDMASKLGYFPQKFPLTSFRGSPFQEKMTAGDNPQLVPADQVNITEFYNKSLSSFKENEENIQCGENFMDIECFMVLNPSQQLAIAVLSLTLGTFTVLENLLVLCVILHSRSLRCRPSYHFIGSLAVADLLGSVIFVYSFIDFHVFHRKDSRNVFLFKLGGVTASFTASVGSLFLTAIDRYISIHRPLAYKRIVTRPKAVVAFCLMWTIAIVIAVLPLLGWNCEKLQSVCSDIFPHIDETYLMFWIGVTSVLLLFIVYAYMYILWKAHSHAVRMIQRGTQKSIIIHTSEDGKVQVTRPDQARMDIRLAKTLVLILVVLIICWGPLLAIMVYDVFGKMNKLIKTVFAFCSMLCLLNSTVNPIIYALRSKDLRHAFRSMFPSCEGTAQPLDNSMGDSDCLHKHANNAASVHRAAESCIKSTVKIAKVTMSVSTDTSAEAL

This assay has as its target T1, recombinant human CB1 receptors (Homo sapiens, UniProt P21554).
T1 construct: expressed in transfected cells; host or cells: HEK293
As to the kind of experiment: Binding to CB1 Receptors. Conditions: [3H]-SR-141716A 1 nM; membranes from HEK293 cells expressing recombinant hCB1; Ki calculated from IC50 (Cheng-Prusoff). How it is done: The binding of compounds of Formula I to recombinant human CB1 receptors was determined in vitro by standard methods, with reference to the procedure described by Rinaldi-Carmona et al. (Rinaldi-Carmona, M., Pialot, F., Congy, C., Redon, E., Barth, F., Bachy, A., Breliere, J. C., Soubre, P., LeFur, G., Life Sci. 1996, 58(15), 1239-1247). Membranes were prepared from HEK293 cells expressing recombinant hCB1 receptors. Binding assays are performed in a total volume of 250 μL, containing [^3H]-SR-141716A (1 nM final concentration), membranes and test compound. Non-specific binding is determined using CP55,940 (10 μM). Serial dilutions are performed starting from test compounds as 10 mM solutions in DMSO. Compounds are tested over the concentration range 10^−10 M to 10^−5 M. Ki values are calculated from IC50 values using the Cheng-Prusoff equation.
Turning to `CN(Cc1ccccc1)C(=O)N1CC(OC(c2ccc(Cl)cc2)c2ccccc2C(F)(F)F)C1` (stereo not drawn) [Example 4, 3-[2-(trifluoromethyl)-4′-chlorobenzhydryloxy]-N-methyl-N-benzyl-azetidine-1-carboxamide], the Ki was 1.5 nM. For `CO[C@H](C(=O)N1CC(OC(c2ccc(Cl)cc2)c2ccc(Cl)cc2Cl)C1)c1ccccc1` (stereo partly drawn) [Example 11, 3-(2,4,4′-trichlorobenzhydryloxy)-1-[(S)-2-methoxy-2-phenylethanoyl]azetidine] the value was 3.2 nM; for `CC(C)(C)NC(=O)N1CC(OC(c2ccc(Cl)cc2)c2cccnc2Cl)C1` (single isomer, unassigned) [Example 34, 3-[(S*)-4-chloro-[…]-(2-chloropyridin-3-yl)benzyloxy]-N-(tert-butyl)azetidine-1-carboxamide], 8.6 nM; for `CC(C)(C)NC(=O)N1CC(OC(c2ccc(Cl)cc2)c2cccnc2Cl)C1` (racemic) [Example 32, 3-[4-chloro-[…]-(2-chloropyridin-3-yl)benzyloxy]-N-(tert-butyl)azetidine-1-carboxamide], 27.7 nM. `CC(C)(C)OC(=O)N1CCCN(C(=O)N2CC(OC(c3ccc(Cl)cc3)c3ccccc3Cl)C2)CC1` (stereo not drawn) [Example 1, 4-[3-(2,4′-dichlorobenzhydryloxy)azetidine-1-carbonyl]-[1,4]diazepine-1-carboxylic acid tert-butyl ester]: the Ki is 0.8 nM. In the case of `CCCCS(=O)(=O)N1CC(OC(c2ccc(Cl)cc2)c2ccc(Cl)cc2Cl)C1` (stereo not drawn) [Example 20, 1-(n-butyl)sulfonyl-3-(2,4,4′-trichlorobenzhydryloxy)azetidine] it was 5.5 nM.
